Measured values: patent publication US20160108414A1, “GROWTH-RELATED ENOX PROTEINS FROM PLANTS WITH YIELD ENHANCEMENT POTENTIAL, SEQUENCES AND METHODS” (Mor-NuCo Enterprises, Inc., priority 2013, published 2016)
Positions count from the first letter of the chain named. Numbers in names are those of the source.

Legend:
Type in all cases: biochemical
[1] = test system: recombinant Arabidopsis ENOX1; experiment: NADH oxidase activity of IEF-purified recombinant Arabidopsis ENOX1; conditions: for Effect on ENOX1 activity eluted from the IEF gel: concentrations of Table 5; for NADH oxidase activity: average of 3 determinations ± SD, None = 2.7 ± 0.4
Experimental: (§1) Cells were centrifuged at 5,000 g for 6 min. Pellets were then resuspended in 20 mM Tris-HCl, pH 8.0, containing 0.5 mM PMSF, 1 mM benzamidine and 1 mM 6-aminocaproic and lysed by three passages through a French pressure cell (SLM Aminco) at 20,000 psi. Expression of the recombinant Arabidopsis ENOX1 of about 14 kDa was confirmed by SDS-PAGE with silver staining. Transformed cells were stored at −80° C. in a standard glycerol stock solution. The Arabidopsis ENOX1 proteins were further purified on Criterion IEF gels (Bio-Rad, Hercules, Calif.). The IEF gel was cut into seven equal segments. The pH represented by each slice was based on IEF standards (Bio-Rad). The slices were soaked in 15 mM Tris-Mes buffer, pH 7, at 4° C. for overnight with shaking. The gel-free extracts were assayed for ENOX1 activity.
(§2) Oxidation of NADH was determined spectrophotometrically from the disappearance of NADH measured at 340 nm in a reaction mixture containing 25 mM Tris-MES (pH 7.2), 100 μM GSH, 1 mM KCN to inhibit mitochondrial oxidase activity, 150 μM NADH and the enzyme at 37° C. with temperature control (±0.5° C.) and stirring. Prior to assay, 1 μM reduced glutathione was added to reduce the protein in the presence of substrate. After 10 min, 0.03% hydrogen peroxide was added to reoxidize the protein under renaturing conditions and in the presence of substrate to start the reaction. Activities were measured using paired Hitachi U3210 or paired SLM Aminco 2000 spectrophotometers both with continuous recording. Assays were run for 1 min and were repeated on the same sample at intervals of 1.5 min for the times indicated. An extinction coefficient of 6.22 cm^−1 mM^−1 was used to determine specific activity.
IEF purified ENOX1 was concentrated to 0.7 mg/ml by using a Centricon concentrator (Millipore Corporation, Danvers, Mass.) fitted with a 10,000 nominal molecular weight limit ultracel YM membrane. Samples (50 μl) were combined with 1 μl of trifluoroacetic acid (TFA) in the presence or absence of 15 μl 10 mM bathocuproine. After 2 h of incubation at room temperature, the samples were dialyzed (Spectra/Pro Dialysis membrane, molecular weight cut-off 6-8,000, Spectrum Laboratories (Rancho Dominguez, Calif.) against 20 mM Tris-HCl, pH 8, at 4° C. overnight.

[2] = target: T1, recombinant ABP-20 (Prunus persica, UniProt O04011, DUP151-151); experiment: NADH oxidase activity of IEF-purified recombinant ABP-20 (dNOX); conditions: for NADH oxidase activity: average of 3 determinations ± SD, None = 0.1 ± 0.08; for optimum concentration for activation: higher concentration less effective
T1 construct: made in house; host or cells: E. coli BL21 (DE3), pET11b
Experimental: as §2
as §1, with “recombinant ABP-20” for “recombinant Arabidopsis ENOX1”, “about 20” for “about 14”, “The recombinant” for “The Arabidopsis ENOX1”, “for ENOX activities as follows: […]” for “for ENOX1 activity.”

[3] = test system: dNOX of soybean; experiment: Stimulation of NOX activity of soybean plasma membranes (dNOX of soybean); conditions: 1 μM
[4] = test system: dNOX (ABP-20); experiment: NADH oxidation of dNOX (ABP-20) site-directed mutants
Experimental: as §2
(§3) Amino acids indicated were replaced by alanines by site-directed mutagenesis according to Braman et al. (Braman, J., Papworth, C. and Greener, A. 1996. Methods Mol. Biol. 57:32-44). Numbered amino acids and nucleotide positions of splice variant products refer to numbers assigned to amino acids of the full length transcript

[5] = test system: dNOX (ABP-20); experiment: DTDP (protein disulfide-thiol) interchange of dNOX (ABP-20) site-directed mutants
Experimental: Protein disulfide-thiol interchange was determined spectrophotometrically from the increase in absorbance at 340 nm resulting from the cleavage of dithiodipyridine (DTDP (Morré, D. J., Gomez-Rey, M. L., Schramke, C., Em, O., Lawler, J., Hobeck, J. and Morré, D. M. 1999. Mol. Cell. Bochem. 200: 7-13). DTDP cleavage was buffered (50 mM Tris-MES, pH 7). The assay was preincubated (1 h at room temperature) with 0.5 μmoles 2,2′-dithiodipyridine (DTDP) in 5 μl of DMSO to react with endogenous reductants present with the plasma membranes. After 10 min, a further […] DTDP were added in 35 μl DMSO to start the reaction. The final reaction volume was […]. The reaction was monitored from the increase in absorbance at 340 nm. Specific activities were calculated using a milimolar absorption coefficient of 6.21.
as §3

Molecule: Cc1cc(-c2ccccc2)c2ccc3c(-c4ccccc4)cc(C)nc3c2n1 [bathocuproine]
- NADH oxidase activity, 24 min period ([1]; assayed with TFA and bathocuproine, FIG. 12): much reduced
- dNOX activity after unfolding ([2]; trifluoroacetic acid plus bathocuproine, FIG. 30B): activity was lost

Molecule: CCS(=O)(=O)c1nc2ccccn2c1S(=O)(=O)NC(=O)Nc1nc(OC)cc(OC)n1 [Sulfonsulfuron]
- Effect on ENOX1 activity eluted from the IEF gel [1]: inhibited
- NADH oxidase activity ([1]; inhibitor 100 μM): 1.2 ± 0.5 µmol/min/mg

Molecule: O=C(O)COc1cccc(Cl)c1Cl [2,3-dichlorophenoxyacetic acid]
- Effect on activity of recombinant ABP-20 [2]: without effect
- NADH oxidase activity ([2]; addition 1 μM): 0.15 ± 0.01 µmol/min/mg

Molecule: COc1cc(CNC(=O)CCCC/C=C/C(C)C)ccc1O [Capsaicin]
- NADH oxidase activity ([1]; addition 1 μM): 3.7 ± 0.1 µmol/min/mg
- Effect on ENOX1 activity eluted from the IEF gel [1]: no inhibition was observed

Molecule: O=C(O)c1cc[c]([Hg][Cl])cc1 [PCMB]
- Effect on activity of recombinant ABP-20 [2]: inhibited
- NADH oxidase activity ([2]; addition 100 μM): 0.1 ± 0.05 µmol/min/mg

Molecule: O=C(O)COc1ccc(Cl)cc1Cl [2,4-dichlorophenoxyacetic acid]
- NADH oxidase activity ([1]; addition 1 μM): 3.7 ± 0.1 µmol/min/mg
- Effect on ENOX1 activity eluted from the IEF gel [1]: without effect
- stimulation of NOX activity of soybean plasma membranes (dNOX) [3]: approximately two-fold
- average specific activity ([2]; 1 μM auxin, IEF-purified fractions): ~0.6±0.2 μmoles/min/mg protein
- NADH oxidase activity ([2]; addition 1 μM): 0.8 ± 0.2 µmol/min/mg
- optimum concentration for activation [2]: about 1 μM

Molecule: N.N.[Cl][Pt][Cl] [Cis-platinum]
- Effect on ENOX1 activity eluted from the IEF gel [1]: no inhibition was observed
- NADH oxidase activity ([1]; inhibitor 100 μM): 3.5 ± 0.002 µmol/min/mg
- Effect on activity of recombinant ABP-20 [2]: inhibited the activity
- NADH oxidase activity ([2]; addition 1 μM): 0.2 ± 0.05 µmol/min/mg

Molecule: Trans-platinum
- Effect on activity of recombinant ABP-20 [2]: without effect
- NADH oxidase activity ([2]; addition 1 μM): 0.7 ± 0.1 µmol/min/mg

Molecule: CC(=O)Nc1cc(NS(=O)(=O)C(F)(F)F)c(C)cc1C [Mefluidide, N-[2,4-Dimethyl-5-[[(trifluoromethyl)sulfonyl]amino]phenyl] acetamide]
- Effect on ENOX1 activity eluted from the IEF gel [1]: inhibited
- NADH oxidase activity ([1]; inhibitor 100 μM): 1.8 ± 0.15 µmol/min/mg

Molecule: O=S(=O)(O)c1cc[c]([Hg][Cl])cc1 [PCMS]
- Effect on activity of recombinant ABP-20 [2]: inhibited
- NADH oxidase activity ([2]; addition 100 μM): 0.3 ± 0.2 µmol/min/mg

Molecule: CC1=CC(=O)[C@@H](O)[C@]2(C)[C@H]3[C@@]4(O)OC[C@]35[C@H]([C@@H](C)[C@H]4O)[C@@H](O)C(=O)O[C@@H]5C[C@@H]12 [Glaucarubolone]
- Effect on activity of recombinant ABP-20 [2]: inhibited the activity
- NADH oxidase activity ([2]; addition 1 μM): 0.2 ± 0.06 µmol/min/mg

Molecule: [2H]O[2H] [heavy water, Deuterium Oxide]
- Period length of ENOX1 activity ([1]; assayed in heavy water, normal period 24 min): about 30 min

Molecule: O=C(O[C@@H]1Cc2c(O)cc(O)cc2O[C@@H]1c1cc(O)c(O)c(O)c1)c1cc(O)c(O)c(O)c1 [EGCg]
- Effect on ENOX1 activity eluted from the IEF gel [1]: no inhibition was observed
- NADH oxidase activity ([1]; inhibitor 500 μM): 3.9 ± 0.05 µmol/min/mg

Molecule: CC[C@@H](C)C(=O)O[C@H]1C(=O)O[C@@H]2C[C@H]3C(C)=CC(=O)[C@@H](O)[C@]3(C)[C@H]3[C@@H](O)[C@H](O)[C@]4(C)OC[C@]32[C@@H]14 [Simalikalactone D]
- NADH oxidase activity ([1]; addition 1 μM): 0.9 ± 0.1 µmol/min/mg
- Effect on ENOX1 activity eluted from the IEF gel [1]: inhibited
- Effect on activity of recombinant ABP-20 [2]: without effect
- NADH oxidase activity ([2]; addition 1 μM): 0.65 ± 0.07 µmol/min/mg

Molecule: COc1ccc2[nH]cc(CCNC(C)=O)c2c1 [melatonin]
- New maximum after melatonin addition (phasing of 24 min period) ([1]; 1 μM melatonin): 24 min

Molecule: OCCc1ccc(O)cc1 [Tyrosol]
- NADH oxidase activity ([1]; inhibitor 10 μM): 3.4 ± 0.2 µmol/min/mg

Molecule: O=C(O)Cc1c[nH]c2ccccc12 [Indole-3-acetic acid]
- NADH oxidase activity ([2]; addition 1 μM): 0.8 ± 0.05 µmol/min/mg
- optimum concentration for activation [2]: about 1 μM

Molecule: O=C(O)c1cc(O)c(O)c(O)c1 [Gallic acid]
- NADH oxidase activity ([1]; inhibitor 100 μM): 3.0 ± 0.5 µmol/min/mg

Molecule: COc1cccc2c1C(=O)c1c(O)c3c(c(O)c1C2=O)C[C@@](O)(C(=O)CO)C[C@@H]3O[C@H]1C[C@H](N)[C@H](O)[C@H](C)O1 [Doxorubicin]
- Effect on activity of recombinant ABP-20 [2]: inhibited the activity
- NADH oxidase activity ([2]; addition 1 μM): 0.2 ± 0.05 µmol/min/mg

B1: G59A: ABP-20 with G59 replaced by alanine (adenine nucleotide binding motif) (protein, UniProt O04011 24-214, looked up, variant G59A)
Auxin-binding protein ABP20: AVQDFCVADLAAPEGPAGFSCKKPASVKVNDFVFSALGIAGNTSNIIKAAVTPAFVAQFPGVNGLGISIARLDLAVGGVVPFHTHPGASEVLIVAQGTICAGFVASDNTPYLQTLEKGDIMVFPQGLLHFQVNGGEAPALAFASFGSASPGLQILDFALFKNDLPTEVIAQTTFLDAAQIKKLKGVLGGTN
- Effect of replacement on NADH oxidation [4]: largely eliminated NADH oxidation
- NADH Oxidation [4]: 0.06 ± 0.02 μmoles/min/mg protein
- DTDP Interchange [5]: 0.07 ± 0.02 μmoles/min/mg protein
- Effect of replacement on disulfide-thiol interchange [5]: without effect

B2: H106A: ABP-20 putative copper site replacement (protein, UniProt O04011 24-214, looked up, variant H106A)
Auxin-binding protein ABP20: B1 Auxin-binding protein ABP20 with A36G, H83A
- Effect of replacement on NADH oxidation [4]: near background
- NADH Oxidation [4]: 0.04 ± 0.01 μmoles/min/mg protein
- DTDP Interchange [5]: 0.02 ± 0.01 μmoles/min/mg protein
- Effect of replacement on disulfide-thiol interchange [5]: near background

B3: H152A: ABP-20 putative copper site replacement (protein, UniProt O04011 24-214, looked up, variant H152A)
Auxin-binding protein ABP20: B1 Auxin-binding protein ABP20 with A36G, H129A
- Effect of replacement on NADH oxidation [4]: near background
- NADH Oxidation [4]: 0.03 ± 0.01 μmoles/min/mg protein
- DTDP Interchange [5]: 0.02 ± 0.01 μmoles/min/mg protein
- Effect of replacement on disulfide-thiol interchange [5]: near background

B4: None (Wild Type): recombinant auxin-activated ENOX protein ABP-20 (Prunus persica), SEQ ID NO: 8, unmodified (protein, listed as Prunus persica)
chain: MPQATMIFPILFTFFLLLSSSNAAVQDFCVADLAAPEGPAGFSCKKPASVKVNDFVFSGLGIAGNTSNIIKAAVTPAFVAQFPGVNGLGISIARLDLAVGGVVPFHTHPGASEVLIVAQGTICAGFVASDNTPYLQTLEKGDIMVFPQGLLLHFQVNGGEAPALAFASFGSASPGLQILDFALFKNDLPTEVIAQTTFLDAAQIKKLKGVLGGTN
modifications: DISULFID (29)..(44); BINDING (59)..(64); BINDING (106)..(108); BINDING (113)..(113); BINDING (150)..(152)
- NADH Oxidation [4]: 0.8 ± 0.1 μmoles/min/mg protein
- DTDP Interchange [5]: 0.9 ± 0.05 μmoles/min/mg protein
